The compounds below were run against T1, hFXR (Homo sapiens, UniProt Q96RI1) (assay: In Vitro FXR Assay (TK): TK-ECRE-luc reporter in transfected CV-1 cells). Conditions: 18 hrs incubation, luminescence.
T1 construct: expressed in transfected cells; host or cells: CV-1 cells
T1 sequence (Q96RI1 1-486): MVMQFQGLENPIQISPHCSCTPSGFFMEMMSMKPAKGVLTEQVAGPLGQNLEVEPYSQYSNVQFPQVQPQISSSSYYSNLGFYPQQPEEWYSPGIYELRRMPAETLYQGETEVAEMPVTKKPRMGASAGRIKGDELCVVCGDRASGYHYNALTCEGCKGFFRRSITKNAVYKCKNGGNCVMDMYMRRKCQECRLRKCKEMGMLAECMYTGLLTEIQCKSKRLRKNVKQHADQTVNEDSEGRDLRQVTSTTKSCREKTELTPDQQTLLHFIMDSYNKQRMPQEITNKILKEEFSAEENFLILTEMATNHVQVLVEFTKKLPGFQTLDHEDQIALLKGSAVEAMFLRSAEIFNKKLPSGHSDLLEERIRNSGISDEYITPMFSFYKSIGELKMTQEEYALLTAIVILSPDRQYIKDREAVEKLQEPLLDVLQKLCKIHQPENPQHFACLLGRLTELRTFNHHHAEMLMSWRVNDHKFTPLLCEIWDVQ
T1 sequence (P19793 1-462 partner): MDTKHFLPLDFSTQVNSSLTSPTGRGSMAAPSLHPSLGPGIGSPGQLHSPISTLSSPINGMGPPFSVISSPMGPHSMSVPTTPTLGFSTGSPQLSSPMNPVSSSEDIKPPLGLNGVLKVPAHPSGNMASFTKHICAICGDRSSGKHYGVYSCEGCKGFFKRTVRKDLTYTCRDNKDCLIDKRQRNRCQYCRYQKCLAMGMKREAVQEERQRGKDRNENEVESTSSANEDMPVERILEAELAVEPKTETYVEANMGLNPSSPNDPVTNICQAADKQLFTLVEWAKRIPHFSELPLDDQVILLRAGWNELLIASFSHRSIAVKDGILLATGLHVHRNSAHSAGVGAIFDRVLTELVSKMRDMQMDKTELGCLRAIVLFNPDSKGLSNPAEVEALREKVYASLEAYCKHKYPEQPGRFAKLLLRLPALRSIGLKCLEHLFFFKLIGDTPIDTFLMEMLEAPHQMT
Format: cell-based
Outline: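 Reporter gene assay: CV-1 cells co-expressing hFXR, hRXR, TK-ECRE-luc and pCMX-YFP after overnight transfection in charcoal-stripped serum. Treatment with serially diluted compounds lasted 18 hrs at 37 °C, followed by cell lysis and a luminescence measurement.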

Row | SMILES | EC50 [nM]
1 | COc1ccc([C@H]2CC[C@H](CN(c3cc(-c4cnn(C(C)C)c4)ccn3)C(=O)[C@H]3CC[C@H](OC(=O)NCCCF)CC3)CC2)cc1C [Compound 2.29, trans-4-((4-(1-Isopropyl-1H-pyrazol-4-yl)pyridin-2-yl)(((trans)-4-(4-methoxy-3-methylphenyl)cyclohexyl)methyl)carbamoyl) cyclohexyl(3-fluoropropyl)carbamate] | ≤ 50
2 | COc1ccc(C23CCC(CN(c4cc(-c5cnc(C6CC6)s5)ccn4)C(=O)[C@H]4CC[C@H](OC(=O)N5CC(O)C5)CC4)(CC2)CC3)cc1C [Compound 4.01, 4-((4-(2-Cyclopropylthiazol-5-yl)pyridin-2-yl)((4-(4-methoxy-3-methylphenyl)bicyclo[2.2.2]octan-1-yl)methyl)carbamoyl) cyclohexyl 3-hydroxyazetidine-trans-1-carboxylate] | ≤ 50
3 | COc1ccc(C23CCC(CN(c4cc(-c5cnc(C(C)C)s5)ccn4)C(=O)[C@H]4CC[C@H](OC(=O)N5CC(S(C)(=O)=O)C5)CC4)(CC2)CC3)cc1C [Compound 4.34, 4-((4-(2-Isopropylthiazol-5-yl)pyridin-2-yl)((4-(4-methoxy-3-methylphenyl)bicyclo[2.2.2]octan-1-yl)methyl)carbamoyl)(trans-cyclohexyl) 3-(methylsulfonyl)azetidine-1-carboxylate] | ≤ 50
4 | COCCN(C)C(=O)O[C@H]1CC[C@H](C(=O)N(CC23CCC(c4ccc(OC)c(C)c4)(CC2)CC3)c2cc(-c3cnn(C(C)C)c3)ccn2)CC1 [Compound 4.56, 4-((4-(1-Isopropyl-1H-pyrazol-4-yl)pyridin-2-yl) ((4-(4-methoxy-3-methylphenyl)bicyclo [2.2.2]octan-1-yl)methyl)carbamoyl)cyclohexyl (2-methoxyethyl)(methyl) trans-carbamate] | ≤ 50
5 | COc1ccc([C@H]2CC[C@H](CN(c3cc(-c4cnn(C(C)C)c4)ccn3)C(=O)[C@H]3CC[C@H](OC(=O)NC[C@@H](F)CO)CC3)CC2)cc1C [Compound 2.41, trans-4-((4-(1-Isopropyl-1H-pyrazol-4-yl)pyridin-2-yl) (((trans)-4-(4-methoxy-3-methylphenyl)cyclohexyl)methyl)carbamoyl) cyclohexyl((R)-2-fluoro-3-hydroxypropyl)carbamate] | ≤ 50
6 | COc1ccc([C@H]2CC[C@H](CN(c3cc(-c4coc(C5CC5)n4)ccn3)C(=O)[C@H]3CC[C@H](OC(=O)NC4COC4)CC3)CC2)cc1C [Compound 2.53, trans-4-((4-(2-Cyclopropyloxazol-4-yl)pyridin-2-yl)(((trans)-4-(4-methoxy-3-methylphenyl)cyclohexyl)methyl)carbamoyl)cyclohexyl oxetan-3-ylcarbamate] | ≤ 50
7 | COc1ccc([C@H]2CC[C@H](CN(c3cc(-c4cnn(C(C)C)c4)ccn3)C(=O)[C@H]3CC[C@H](OC(=O)NCC(C)(F)F)CC3)CC2)cc1C [Compound 2.31, trans-4-((4-(1-Isopropyl-1H-pyrazol-4-yl)pyridin-2-yl)(((trans)-4-(4-methoxy-3-methylphenyl)cyclohexyl)methyl)carbamoyl) cyclohexyl(2,2-difluoropropyl)carbamate] | ≤ 50

Continued, values first:

Row | EC50 [nM] | SMILES
8 | ≤ 50 | COCC(=O)N[C@H]1CC[C@H](C(=O)N(CC23CCC(c4ccc(OC)c(C)c4)(CC2)CC3)c2cc(-c3coc(C4CC4)n3)ccn2)CC1 [Compound 9.10, (trans)-N-(4-(2-Cyclopropyloxazol-4-yl)pyridin-2-yl)-N-((4-(4-methoxy-3-methylphenyl)bicyclo[2.2.2]octan-1-yl)methyl)-4-(2-methoxyacetamido)cyclohexanecar-boxamide]
9 | ≤ 50 | COc1ccc(C23CCC(CN(c4cc(-c5cnn(C6(C)CCC6)c5)ccn4)C(=O)[C@H]4CC[C@H](OC(=O)N5CC(S(C)(=O)=O)C5)CC4)(CC2)CC3)cc1C [Compound 25.19, 4-(((4-(4-Methoxy-3-methylphenyl)bicyclo[2.2.2]octan-1-yl)methyl)(4-(1-(1-methylcyclobutyl)-1H-pyrazol-4-yl)pyridin-2-yl)carbamoyl)(trans-cyclohexyl) 3-(methylsulfonyl)azetidine-1-carboxylate]
10 | ≤ 50 | COc1ccc([C@H]2CC[C@H](CN(c3cccc(-c4cnn(C(C)C)c4)c3)C(=O)[C@H]3CC[C@H](NC(=O)C4CCOCC4)CC3)CC2)cc1C [Compound 10.02, N-(trans-4-((3-(1-Isopropyl-1H-pyrazol-4-yl)phenyl)((trans-4-(4-methoxy-3-methylphenyl)cyclohexyl)methyl)carbamoyl)cyclohexyl)tetrahydro-2H-pyran-4-carboxamide]
11 | ≤ 50 | CC(C)c1ccc(C23CCC(CN(c4cc(-c5cnn(C(C)C)c5)ccn4)C(=O)[C@H]4CC[C@H](OC(=O)N5CC(O)C5)CC4)(CC2)CC3)cc1 [Compound 26.10, 4-((4-(1-Isopropyl-1H-pyrazol-4-yl)pyridin-2-yl)((4-(4-isopropylphenyl)bicyclo[2.2.2]octan-1-yl)methyl)carbamoyl)cyclohexyl trans-3-hydroxyazetidine-1-carboxylate]
12 | ≤ 50 | COc1ccc(C23CCC(CN(c4cc(-c5cnn(C(C)C)c5)ccn4)C(=O)[C@H]4CC[C@H](NC(C)=O)CC4)(CC2)CC3)cc1C [Compound 10.05, trans-4-Acetamido-N-(4-(1-isopropyl-1H-pyrazol-4-yl)pyridin-2-yl)-N-((4-(4-methoxy-3-methylphenyl)bicyclo[2.2.2]octan-1-yl)methyl)cyclohexane-carboxamide]
13 | ≤ 50 | CCCNC(=O)O[C@H]1CC[C@H](C(=O)N(C[C@H]2CC[C@H](c3ccc(OC)c(C)c3)CC2)c2cccc(-c3cnn(C(C)C)c3)c2)CC1 [Compound 5.03, trans-4-((3-(1-Isopropyl-1H-pyrazol-4-yl)phenyl)(((trans)-4-(4-methoxy-3-methylphenyl)cyclohexyl)methyl)carbamoyl)cyclohexyl propylcarbamate]
14 | 50 to 1000 | CS(=O)(=O)c1ccc([C@H]2CC[C@H](CN(c3cccc(-c4cnc(C5CC5)s4)c3)C(=O)[C@H]3CC[C@H](OC(=O)N4CC(O)C4)CC3)CC2)cc1 [Compound 5.15, trans-4-((3-(2-Cyclopropylthiazol-5-yl)phenyl)((trans-4-(4-(methylsulfonyl)phenyl)cyclohexyl)methyl)carbamoyl)cyclohexyl 3-hydroxyazetidine-1-carboxylate]
15 | 50 to 1000 | COc1ccc(C23CCC(CN(c4cc(C5CCN(C(C)C)CC5)ccn4)C(=O)[C@H]4CC[C@H](OC(=O)N5CC(O)C5)CC4)(CC2)CC3)cc1C [Compound 23.17, 4-((4-(1-Isopropylpiperidin-4-yl)pyridin-2-yl)((4-(4-methoxy-3-methylphenyl)bicyclo[2.2.2]octan-1-yl)methyl)carbamoyl)cyclo-hexyl trans-3-hydroxyazetidine-1-carboxylate]
16 | 1000 to 10000 | COc1ccc(C23CCC(CN(c4cc(-n5nnc(C(C)C)n5)ccn4)C(=O)[C@H]4CC[C@H](OC(=O)N5CC(O)C5)CC4)(CC2)CC3)cc1C [Compound 26.17, 4-((4-(5-Isopropyl-2H-tetrazol-2-yl)pyridin-2-yl)((4-(4-methoxy-3-methylphenyl)bicyclo[2.2.2]octan-1-yl)methyl)carbamoyl)cyclohexyl trans-3-hydroxyazetidine-1-carboxylate]
